Measurements taken from PMC9496553, “The Dual-Targeted Peptide Conjugated Probe for Depicting Residual Nasopharyngeal Carcinoma and Guiding Surgery” (Biosensors, 2022).
No end group written: not given here.

Tests used:
Type in all cases: in vivo, BALB/c nude mice
5-8F tumours [1] = experiment: Biodistribution and tumour selectivity by whole-body fluorescence imaging, subcutaneous tumour model; conditions: for maximum TBR (tumour-to-background ratio): i.v. 12 μM, tumour region vs ipsilateral auricle
Experimental: (§1) Animal experiments were performed in accordance with the approval of Animal Welfare and Ethics Committee of Jinan University (approval number: IACUC-20211210-03). Four-week-old BALB/c nude mice were purchased from the Beijing Vital River Laboratory Animal Technology Co., Ltd. (Beijing, China). Subcutaneous tumour models received a subcutaneous injection of 5-8F (5.0 × 10^6 in 200 μL PBS) in the lower right flank. Experiments were started 10–14 days after tumour implantation, when the tumour diameter was 6–8 mm. Tumour volumes were measured using a Vernier calliper and calculated using the formula for a hemiellipsoid (volume = 0.5236 × length × width^2), as this form best approximated the tumour shape. For orthotopic tumour models, mice were anaesthetised using isoflurane with a precision vaporiser at 1% and injected with 25 μL of 1.1 × 10^5 5-8F-fLuc cells into the nasopharynx using a 28-gauge needle, as previously reported. Mice were fed a specific pathogen-free unit, and animal surgery was performed in a sterile hood. Orthotopic tumours were visualised and tracked by bioluminescence imaging (BLI) using an IVIS® Spectrum In Vivo Imaging System (PerkinElmer, Waltham, MA, USA). Specifically, mice received an intraperitoneal injection of 3 mg/mL luciferin bioluminescent substrate (Perkin Elmer, Waltham, MA, USA) 4 min before imaging.
Mice with subcutaneous 5-8F tumours were randomly divided into three groups (n = 3 per group). The three groups received intravenous (i.v.) injection with 12 μM FY-35 (dual-target dye), 12 μM FL-35 (single-target dye), and equimolar quantities of free dye, respectively. Fluorescence images were acquired pre-, 2 h, 6 h, 10 h, and 24 h post-injection. The mice in each group were euthanised. The heart, lung, liver, pancreas, spleen, kidney, intestine, and tumour tissues were collected for ex vivo imaging. The MFI was analysed to determine organ biodistribution and tumour selectivity in the three groups. The TBR was calculated by drawing regions of interest within the tumour region and ipsilateral auricle of each mouse.

[2] = system: 5-8F-fLuc orthotopic tumours; experiment: Fluorescence imaging of orthotopic nasopharyngeal tumours; conditions: orthotopic model, n = 5, i.v. 12 μM, imaged up to 48 h post-injection
Experimental: as §1, with “Mice were fed a specific pathogen-free unit, and animal surgery was performed in a sterile hood. Orthotopic tumours were visualised and tracked by bioluminescence imaging (BLI) using an IVIS® Spectrum In Vivo Imaging System (PerkinElmer, Waltham, MA, USA). Specifically, mice received an intraperitoneal injection of 3 mg/mL luciferin bioluminescent substrate (Perkin Elmer, Waltham, MA, USA) 4 min before imaging.” left out
(§2) To identify the minimal size of detectable tumours, subcutaneous tumours of different sizes (1–7 mm; n = 8) were injected with 12 μM FY-35, and imaged at 24 h post-injection to measure MFI in the tumour region. […] Serial sections were cut at a thickness of 10 μm for fluorescence imaging using an inverted microscope (Leica, Wetzlar, Germany), and 4 μm for haematoxylin–eosin (H&E) staining.

5-8F tumours [3] = experiment: Minimal size of detectable subcutaneous tumours by fluorescence imaging; conditions: 12 μM, n = 8
Experimental: as §1, with “Mice were fed a specific pathogen-free unit, and animal surgery was performed in a sterile hood. Orthotopic tumours were visualised and tracked by bioluminescence imaging (BLI) using an IVIS® Spectrum In Vivo Imaging System (PerkinElmer, Waltham, MA, USA). Specifically, mice received an intraperitoneal injection of 3 mg/mL luciferin bioluminescent substrate (Perkin Elmer, Waltham, MA, USA) 4 min before imaging.” left out
as §2

| Substance | maximum TBR (tumour-to-background ratio) (5-8F tumours [1]; subcutaneous 5-8F tumours) | retention of optical contrast in the tumour region [2] | tumour volume at which the MFI increased remarkably (5-8F tumours [3]; 24 h post-injection) | minimum size of detectable tumours (5-8F tumours [3]; imaged 24 h post-injection, subcutaneous tumours 1–7 mm) | contrast improved compared to single-targeted tracer (IR800-FL-35) (5-8F tumours [1]; at 24 h post-injection) | maximum TBR, fold higher than that of IR800-FL-35 (5-8F tumours [1]; subcutaneous 5-8F tumours) |
| --- | --- | --- | --- | --- | --- | --- |
| IR800-FL-35: single-targeted peptide FL-35 labelled with IRDye 800CW (FAEKFKEAVKDYFAKFWDGSGSYTYSTPVWVPLWL; also: IRDye 800CW label, site not given here) | 5.99 |  |  |  |  |  |
| IR800-FY-35: bispecific peptide FY-35 labelled with IRDye 800CW (FAEKFKEAVKDYFAKFWDGSGLTVSPWYLTVSPWY; also: IRDye 800CW label, site not given here) | 13.83 | 48 h | 32 mm^3 | 3.9 mm | 2.3 fold | 2.3 fold |
